# Experimental data published in patent US12053451B2, “Arginase inhibitors and their therapeutic applications” (OncoArendi Therapeutics S.A., priority 2016, dated 2024).
# Structures can show the parent of a compound that is named as a salt.
# What was measured:
# [1] = biological target: T1, recombinant human arginase 2 (Homo sapiens, UniProt P78540); experiment: Human arginase activity assay (urea measurement), arginase 2; type: biochemical; details: for selected examples class estimated from % of inhibition at 1 μM and 100 μM, * = most potent diastereoisomer or mixture of diastereoisomers, read-out: Activity Class (ARG II)
# T1 construct: made in house; host or cells: CHO
# T1 sequence (P78540 23-354): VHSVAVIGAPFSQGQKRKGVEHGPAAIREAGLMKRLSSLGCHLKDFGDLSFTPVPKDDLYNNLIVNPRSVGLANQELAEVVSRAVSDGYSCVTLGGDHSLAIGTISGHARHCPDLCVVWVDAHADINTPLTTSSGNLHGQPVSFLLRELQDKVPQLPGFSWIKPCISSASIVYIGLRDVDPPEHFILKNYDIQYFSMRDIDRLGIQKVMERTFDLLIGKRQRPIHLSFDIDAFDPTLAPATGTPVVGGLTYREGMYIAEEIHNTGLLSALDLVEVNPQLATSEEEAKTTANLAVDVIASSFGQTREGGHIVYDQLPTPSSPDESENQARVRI
# In short: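 Recombinant CHO-expressed human arginase 2 converted 20 mM L-arginine with 150 μM MnCl2 in phosphate buffer pH 7.4 for 60 min at 37 °C. Urea was measured colorimetrically at 530 nm after background subtraction, and IC50 fitted. Some compounds were classed by % inhibition at 1 μM and 100 μM.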
# [2] = biological target: T2, intracellular arginase in macrophages isolated from murine bone marrow (BMDM) (Mus musculus, UniProt Q61176); experiment: Cell-based assay: intracellular arginase in bone marrow derived macrophages (BMDM), urea level; parameters: species or system Balb/c mice; details: murine BMDM with M-CSF and IL-4, urea measured 24 hours after compound; * = most potent diastereoisomer or mixture of diastereoisomers; read-out: Activity Class (BMDM)
# T2 construct: endogenous in cells; host or cells: primary bone marrow derived macrophages from Balb/c mice, M-CSF and IL-4 treated
# T2 sequence (Q61176 1-323): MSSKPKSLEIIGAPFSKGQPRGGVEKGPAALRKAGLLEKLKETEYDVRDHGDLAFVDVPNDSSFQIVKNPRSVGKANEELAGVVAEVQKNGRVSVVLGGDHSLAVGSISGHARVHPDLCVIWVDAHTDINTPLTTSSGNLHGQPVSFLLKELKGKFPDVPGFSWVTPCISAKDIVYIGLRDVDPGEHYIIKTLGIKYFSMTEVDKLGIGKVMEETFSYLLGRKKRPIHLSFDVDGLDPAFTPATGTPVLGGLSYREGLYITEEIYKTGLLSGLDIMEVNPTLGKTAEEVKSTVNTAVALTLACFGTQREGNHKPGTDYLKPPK
# Experimental: Efficacy of Selected Examples Towards Intracellular Arginase in Macrophages Isolated from Murine Bone Marrow—Bone Marrow Derived Macrophages (BMDM)
# Materials & Methods: The assay was performed according to modified literature protocol modification (Pineda-Torra I et al., Methods Mol Biol. 2015; 1339:101-9. Mia S et al. Scand J Immunol. 2014 May; 79(5):305-14). The femurs and tibias were isolated from Balb/c mice. Bones were cleaned from all attached tissues by using sterile swab without affecting the bone structure. Bones were sterilized by immersion in 70% ethanol for 5 min and then rinsed in PBS. The sides of the bones were cut off and flush with cold sterile PBS by using 26-G needle S into a 50 mL sterile tube with a cell strainer (Falcon™, Cat. No. U00149), until bone cavity appeared white. Then the cells were centrifuged (5 min at 500×G, 4° C.), washed twice with PBS and counted. Cells were plated in Petri dish in density of 1×10^6/mL and cultured in DMEM (Gibco, Cat. No. 31331-029) with 10% FBS, 1% pen-strep and 50 ng/mL M-CSF (PeproTech, Cat. No. 315-02), (37° C., 5% CO2). After five days cells were subcultured into P96 plate (BD, Cat. No. 353072) in density of 64 000 cells/well in medium supplemented with 50 ng/mL M-CSF and 20 ng/mL IL-4 (Biomibo Cat. No. 214-1). One day later exemplary compounds (dissolved in PBS) were added in several different concentrations and 24 hours later the level of urea was measured in each well (Jung D et al., Clin Chem. 1975, 21(8):1136-40). The concentration of urea in the absence of any compound was considered as the maximum. The absorbance of cell culture media (background) was subtracted from all the values.
# For selected examples the activity class for ARG2 was estimated based on % of inhibition for 1 μM and 100 μM concentration of tested compounds.
# [3] = biological target: T3, recombinant human arginase 1 (Homo sapiens, UniProt P05089); experiment: Human arginase activity assay (urea measurement), arginase 1; type: biochemical; details: recombinant human arginase 1, pH 7.4, 37° C., 60 min; * = value for the most potent diastereoisomer or the mixture of diastereoisomers; read-out: Activity Class (ARG I)
# T3 construct: purchased Biolegend 552502
# T3 sequence (P05089 1-322): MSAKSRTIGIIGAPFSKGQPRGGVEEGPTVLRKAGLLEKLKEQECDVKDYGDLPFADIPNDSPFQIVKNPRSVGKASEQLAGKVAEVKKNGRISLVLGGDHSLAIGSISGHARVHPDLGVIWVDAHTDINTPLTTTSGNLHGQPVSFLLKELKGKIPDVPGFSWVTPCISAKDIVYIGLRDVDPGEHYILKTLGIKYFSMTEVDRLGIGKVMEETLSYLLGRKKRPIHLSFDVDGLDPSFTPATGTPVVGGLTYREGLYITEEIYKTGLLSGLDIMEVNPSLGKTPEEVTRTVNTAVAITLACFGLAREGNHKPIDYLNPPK
# In short: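 Arginase activity was measured as urea formed from L-arginine over 60 min at 37 °C. Reaction stopped with oPA/NED acidic reagent and absorbance read at 530 nm after 20 min colour development. Values were background-subtracted and normalised to no-compound activity, and IC50 was derived from percent-inhibition concentration-response regression.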
IC50 [1],IC50 [2],IC50 [3],SMILES
1000 to 10000 nM,1000 to 10000 nM,100 to 1000 nM,"NC1(C(=O)O)CC(CCB(O)O)CC=C1Cc1ccc(Cl)cc1 (stereo not drawn) [Example 53, 1-amino-5-(2-boronoethyl)-2-(4-chlorobenzyl)cyclohex-2-enecarboxylic acid hydrochloride]"
100 to 1000 nM,> 100000 nM,1000 to 10000 nM,"NC1CC(CCB(O)O)CC(N)(C(=O)O)C1 (stereo not drawn) [Example 56, 1,3-diamino-5-(2-boronoethyl)cyclohexanecarboxylic acid dihydrochloride]"
100 to 1000 nM,10000 to 100000 nM,1000 to 10000 nM,"NC1CC(CCB(O)O)CC1(N)C(=O)O (stereo not drawn) [Example 62, 1,2-diamino-4-(2-boronoethyl)cyclopentanecarboxylic acid dihydrochloride]"
10000 to 100000 nM,> 100000 nM,10000 to 100000 nM,"CN(C)C1CC(CCB(O)O)CC(N)(C(=O)O)C1 (stereo not drawn) [Example 65, 1-amino-3-(2-boronoethyl)-5-(dimethylamino)cyclohexane-1-carboxylic acid dihydrochloride]"
1 to 100 nM,100 to 1000 nM,1 to 100 nM,"CCN(C)C[C@@H]1CC[C@@H](CCB(O)O)C[C@]1(N)C(=O)O [Example 69, (1R,2S,5R)-1-amino-5-(2-boronoethyl)-2-((ethyl(methyl)amino)methyl)cyclohexane-1-carboxylic acid]"
100 to 1000 nM,1 to 100 nM,1 to 100 nM,"N[C@]1(C(=O)O)C[C@H](CCB(O)O)CC[C@H]1CN1CCCCC1 [Example 70, (1R,2S,5R)-1-amino-5-(2-boronoethyl)-2-(piperidin-1-ylmethyl)cyclohexane-1-carboxylic acid]"
1 to 100 nM,1 to 100 nM,1 to 100 nM,"N[C@]1(C(=O)O)C[C@H](CCB(O)O)CC[C@H]1CN1CCCC1 [Example 71, (1R,2S,5R)-1-amino-5-(2-boronoethyl)-2-(pyrrolidin-1-ylmethyl)cyclohexane-1-carboxylic acid]"

# The remaining lines, values behind:
SMILES,IC50 [1],IC50 [2],IC50 [3]
"N[C@@](CCCCB(O)O)(C(=O)O)C1CCN(Cc2ccc(Cl)c(Cl)c2)CC1 [Comparative example 3, reference compound]",100 to 1000 nM,1000 to 10000 nM,1 to 100 nM
"NCC1CCC(CCB(O)O)CC1(N)C(=O)O (stereo not drawn) [Example 24, 1-Amino-2-(aminomethyl)-5-(2-boronoethyl)cyclohexane-1-carboxylic acid]",100 to 1000 nM,10000 to 100000 nM,1 to 100 nM
"CN(C)C[C@@H]1CC[C@@H](CCB(O)O)C[C@]1(N)C(=O)O [Example 38, (1R,2S,5R)-1-amino-5-(2-boronoethyl)-2-((dimethylamino)methyl)cyclohexanecarboxylic acid]",1 to 100 nM,1 to 100 nM,1 to 100 nM
"CNC[C@@H]1CC[C@@H](CCB(O)O)C[C@]1(N)C(=O)O [Example 39, (1R,2S,5R)-1-amino-5-(2-boronoethyl)-2-((methylamino)methyl)cyclohexanecarboxylic acid dihydrochloride]",1 to 100 nM,100 to 1000 nM,1 to 100 nM
"CN(C)C[C@@H]1CC[C@@H](CCB2O[C@H]3C[C@H]4C[C@H](C4(C)C)[C@@]3(C)O2)C[C@]1(N)C(=O)O [Example 44, (1R,2S,5R)-1-amino-2-((dimethylamino)methyl)-5-(2-((3aR,4R,6R,7aS)-3a,5,5-trimethylhexahydro-4,6-methanobenzo[d][1,3,2]dioxaborol-2-yl)ethyl)cyclohexane-1-carboxylic acid dihydrochloride]",1 to 100 nM,1 to 100 nM,1 to 100 nM
"CC1(C)[C@H]2C[C@@H]3OB(CC[C@@H]4CC[C@@H](CN5CCCC5)[C@@](N)(C(=O)O)C4)O[C@]3(C)[C@@H]1C2 [Example 45, (1R,2S,5R)-1-amino-2-(pyrrolidin-1-ylmethyl)-5-(2-((3aR,4R,6R,7aS)-3a,5,5-trimethylhexahydro-4,6-methanobenzo[d][1,3,2]dioxaborol-2-yl)ethyl)cyclohexanecarboxylic acid dihydrochloride]",100 to 1000 nM,1 to 100 nM,1 to 100 nM
"NC1(C(=O)O)C[C@H](CCB(O)O)CCC1CCN1CCCC1 (stereo partly drawn) [Example 46, (5R)-1-amino-5-(2-boronoethyl)-2-(2-(pyrrolidin-1-yl)ethyl)cyclohexanecarboxylic acid dihydrochloride]",1 to 100 nM,100 to 1000 nM,1 to 100 nM
"CC1(O)CCC(CCB(O)O)CC1(N)C(=O)O (stereo not drawn) [Example 50, 1-amino-5-(2-boronoethyl)-2-hydroxy-2-methylcyclohexanecarboxylic acid hydrochloride]",100 to 1000 nM,10000 to 100000 nM,100 to 1000 nM
